Results reported in the NIST ThermoML archive (doi:10.1021/je300312c).
“And” between values parts separate entries of the source, which are not always exact repeats. Identical values can stand only once. Numbers after ± are expanded uncertainties.

Assays:
[1] = for vapor or sublimation pressure: Transpiration method
[2] = Molar enthalpy of transition or fusion; conditions: Crystal; DSC

CCn1cnc2ccccc21 [1-ethyl-1H-benzimidazole]
[1], Liquid
Conditions | vapor or sublimation pressure [kPa]
328.8 K | 0.00273 ± 0.00011
331.8 K | 0.00334 ± 0.00014
334.3 K | 0.0041 ± 0.00017
336.7 K | 0.00481 ± 0.0002
339.2 K | 0.00591 ± 0.00025
341.7 K | 0.00714 ± 0.0003
343.7 K | 0.00826 ± 0.00034
346.7 K | 0.01029 ± 0.00042
349.1 K | 0.01206 ± 0.00049
351.7 K | 0.01365 ± 0.00056
353.9 K | 0.01678 ± 0.00069
356.7 K | 0.01954 ± 0.00081
358.9 K | 0.02439 ± 0.001
361.2 K | 0.02801 ± 0.0011
363.9 K | 0.03343 ± 0.0014
366.6 K | 0.03948 ± 0.0016
368.9 K | 0.04573 ± 0.0019
372.1 K | 0.05679 ± 0.0023
375.1 K | 0.06706 ± 0.0027

CCCCCn1cnc2ccccc21 [1-pentyl-1H-benzimidazole]
[1], Liquid
Conditions | vapor or sublimation pressure
324.7 K | 0.00028 ± 2e-05 kPa
329.1 K | 0.00041 ± 2e-05 kPa
332 K | 0.00054 ± 3e-05 kPa
335.1 K | 0.00073 ± 3e-05 kPa
338.3 K | 0.0009 ± 4e-05 kPa
341.2 K | 0.00118 ± 5e-05 kPa
342.2 K | 0.00124 ± 6e-05 kPa
344 K | 0.00158 ± 7e-05 kPa
347.3 K | 0.00203 ± 8e-05 kPa
350.1 K | 0.00245 ± 0.0001 kPa
350.3 K | 0.00238 ± 0.0001 kPa
353.2 K | 0.00303 ± 0.00013 kPa
353.3 K | 0.00329 ± 0.00014 kPa
356.2 K | 0.00402 ± 0.00023 kPa
356.6 K | 0.00437 ± 0.00024 kPa
359.4 K | 0.00534 ± 0.00022 kPa
361.7 K | 0.00609 ± 0.00025 kPa and 0.0063 ± 0.00026 kPa
364.3 K | 0.00768 ± 0.00032 kPa and 0.0074 ± 0.00031 kPa
366.7 K | 0.00884 ± 0.00036 kPa
369.7 K | 0.0109 ± 0.00044 kPa
372.8 K | 0.0129 ± 0.00053 kPa
375.8 K | 0.01595 ± 0.00065 kPa

Cn1cnc2ccccc21 [1-methylbenzimidazole]
[1]
Conditions | Normal melting temperature [°C] | vapor or sublimation pressure [kPa]
300.7 K, Crystal | – | 0.0002 ± 2e-05
303.2 K, Crystal | – | 0.00026 ± 2e-05
305.6 K, Crystal | – | 0.00034 ± 2e-05
308.1 K, Crystal | – | 0.00046 ± 2e-05
311 K, Crystal | – | 0.00061 ± 3e-05
313.7 K, Crystal | – | 0.00082 ± 4e-05
314.2 K, Crystal | – | 0.00087 ± 4e-05
314.2 K, Liquid | – | 0.00115 ± 5e-05
316.6 K, Liquid | – | 0.00139 ± 6e-05
316.7 K, Crystal | – | 0.00112 ± 5e-05
319 K, Liquid | – | 0.00172 ± 7e-05
319.6 K, Crystal | – | 0.00154 ± 7e-05
321.5 K, Liquid | – | 0.00209 ± 9e-05
322.5 K, Crystal | – | 0.00213 ± 9e-05
324.5 K, Crystal | – | 0.00249 ± 0.0001
324.5 K, Liquid | – | 0.00278 ± 0.00012
325.5 K, Crystal | – | 0.0027 ± 0.00012
326.9 K, Crystal | – | 0.00316 ± 0.00014
326.9 K, Liquid | – | 0.00332 ± 0.00014
329.5 K, Liquid | – | 0.00402 ± 0.00017
331.5 K, Liquid | – | 0.0046 ± 0.0002
334.5 K, Liquid | – | 0.00598 ± 0.00025
335.9 K, Liquid | – | 0.00673 ± 0.00028
336.9 K, Liquid | – | 0.00709 ± 0.00029
337.5 K, Liquid | – | 0.00742 ± 0.00031
339.6 K, Liquid | – | 0.00868 ± 0.00036
341.6 K, Liquid | – | 0.01014 ± 0.00043
344.4 K, Liquid | – | 0.01267 ± 0.00053
347.2 K, Liquid | – | 0.0155 ± 0.00064
349.4 K, Liquid | – | 0.01858 ± 0.00077
351.8 K, Liquid | – | 0.02168 ± 0.00088
354.1 K, Liquid | – | 0.02462 ± 0.0012
354.4 K, Liquid | – | 0.0258 ± 0.0013
356.5 K, Liquid | – | 0.029 ± 0.0012
358.9 K, Liquid | – | 0.03371 ± 0.0014
361.3 K, Liquid | – | 0.0389 ± 0.0016
364 K, Liquid | – | 0.04752 ± 0.0019
366.8 K, Liquid | – | 0.0558 ± 0.0023
368.1 K, Liquid | – | 0.06162 ± 0.0025
369.4 K, Liquid | – | 0.06627 ± 0.0027
372.6 K, Liquid | – | 0.07877 ± 0.0032
374.5 K, Liquid | – | 0.08885 ± 0.0036
376 K, Liquid | – | 0.09738 ± 0.0039
Crystal, DTA | 60.1 ± 0.4 | –

Conditions | Molar enthalpy of transition or fusion [kcal/mol]
[2] | 3.23 ± 0.0956

CCCn1cnc2ccccc21 [1-propyl-1H-benzimidazole]
[1], Liquid
Conditions | vapor or sublimation pressure [kPa]
326.7 K | 0.00166 ± 7e-05
329.1 K | 0.00202 ± 9e-05
331.7 K | 0.00262 ± 0.00011
333.9 K | 0.00298 ± 0.00014
334.3 K | 0.00312 ± 0.00014
336.6 K | 0.00377 ± 0.00016
339.2 K | 0.0047 ± 0.0002
341.4 K | 0.00546 ± 0.00023
344.2 K | 0.00671 ± 0.00028
346.9 K | 0.00797 ± 0.00033
349.3 K | 0.00969 ± 0.00042
351.8 K | 0.01262 ± 0.00052
354.3 K | 0.01444 ± 0.00059
356.8 K | 0.01719 ± 0.0007
359.3 K | 0.01949 ± 0.00081
361.8 K | 0.02422 ± 0.001
364.3 K | 0.02965 ± 0.0012
366.6 K | 0.03507 ± 0.0014
369.3 K | 0.0417 ± 0.0017
372.4 K | 0.05004 ± 0.002
375.9 K | 0.06251 ± 0.0025
